The record followed here is patent US20120328721A1, “ALOE VERA SPROUT CONCENTRATE OR EXTRACT HAVING SUPERIOR SKIN CELL GROWTH PROMOTION, ANTIOXIDANT, AND ANTI-ALLERGY EFFECTS” (l, priority 2009, published 2012).

In the test the test system is type I collagen mRNA. Description: Promotion of collagen synthesis (type I collagen mRNA, RT-PCR). Type of test: cell-based. The settings on record: positive control vitamin C 100 μg/ml. How it is done: To evaluate the inhibitory activity against MMP-1 gene expression of Aloe vera shoot concentrate, the change of mRNA expression was measured. RNA was extracted by using Trizol (Invitrogen, USA) according to the guanidium thiocyanate-phenol-chloroform extraction method, and then RT-PCR was carried out by using an All-in-one RT-PCR kit (SuperBio, Korea). PCR (reverse transcription at 50° C. for 30 minutes, inactivation of reverse transcriptase at 96° C. for 3 minutes, 25 cycles of 94° C. for 1 minute, 48° C. for 1 minute and 72° C. for 1 minute) was carried out by using an MMP-1 primer of Table 9, and actin was used as a control group. To evaluate the activity for the promotion of collagen synthesis of Aloe vera shoot concentrate, the expression of collagen mRNA was measured. RT-PCR was carried out with the same method as Experimental Example 9 except that the condition was 30 cycles of 94° C. for 1 minute, 62° C. for 1 minute and 72 ° C. for 1 minute, and collagen primer of Table 11 was used.

In the case of `O=C1O[C@H]([C@@H](O)CO)C(O)=C1O` [vitamin C], the “Type I collagen expression amount (%)” value by setting is: (column 100 μg/ml) 131.1%; (column 200 μg/ml) 156.3%.
